Results published in EP3338554A1, “COMPOSITION AND METHOD FOR PREVENTING DEPOSIT FORMATION IN A DRIP IRRIGATION SYSTEM” (Evonik Degussa GmbH, priority 2016, dated 2018).

Assay: Calcium sulfate precipitation test of NACE standard TM0374-2007 (scale inhibition efficiency)
Method: The efficiency for preventing the precipitation of calcium sulfate from aqueous solution was determined with the calcium sulfate precipitation test of NACE standard TM0374-2007. A composition prepared as in example 1 was added in amounts providing the concentrations of hydrogen peroxide and HEDP in the test brine given in table 4. The hydrogen peroxide and the HEDP used for making the composition were tested for comparison.

CC(O)(P(=O)(O)O)P(=O)(O)O [HEDP, 1-hydroxyethylidene-1,1-diphosphonic acid]
% inhibition in calcium sulfate precipitation test (HEDP 1 ppm alone): 39%
% inhibition in calcium sulfate precipitation test (HEDP 5 ppm alone): 77%
% inhibition in calcium sulfate precipitation test (HEDP 10 ppm alone): 74%

OO [Hydrogen peroxide, hydrogen peroxide]
% inhibition in calcium sulfate precipitation test (hydrogen peroxide 10 ppm alone): -8%
% inhibition in calcium sulfate precipitation test (hydrogen peroxide 50 ppm alone): -9%
% inhibition in calcium sulfate precipitation test (hydrogen peroxide 100 ppm alone): -9%
